Assay: Evaluation of malodor neutralization: sniffer box evaluation by 12 expert panelists
Conditions: arithmetic mean of panelist ratings; line scale from no odor (0) to strongest imaginable (10), moderate (5) = unperfumed malodor reference; 1 g water added to each sample
Method: The object of the following experiments has been the evaluation of performance against feminine hygiene malodor out of sniffer boxes. For this purpose 12 expert panelists evaluated the samples from sniffer boxes. The malodor was placed on different cotton balls and put into an aroma-tight air bag with a volume of […] together with the raw materials placed in a petri dish. Perfume- and malodor intensities were evaluated on a continuous line scale with ten labels ranging from “no odor” (0) to “strongest imaginable” (10) odor with “moderate” (5) being the unperfumed malodor reference sample. Note that panelists only see the verbal anchors not the numbers (0-10) while rating. Results are arithmetic means of the individual panelist's ratings. Subsequently, the data obtained from the olfactory tests were evaluated statistically by a Friedmann-Test for overall difference between the samples followed by a pairwise comparison to identify significant differences among individual samples.

SMILES | Malodor (malodor intensity)
CC1CCC(C(C)C)C(OC(=O)C(C)O)C1 (stereo not drawn) [C3, menthyl lactate] | 4.3
CC1CCC(C(C)C)C2(C1)OCC(CO)O2 (stereo not drawn) [C4, menthone glycerin acetal] | 4.4
CC(=O)OC1CC(C)CCC1C(C)C (stereo not drawn) [c2, menthyl acetate] | 4.4

— US20240225915A1, “COMPOSITIONS FOR FIGHTING MALODORS” (SYMRISE AG, priority 2021, published 2024)
